Reference: US20220304976A1, “Method of simultaneously treating viral disease caused coronavirus, its variants and mutants using a pharmaceutical micronutrient composition” (priority 2021, published 2022)
Like-named read-outs stand apart in the source and are kept apart here.

Assays:
[1] = test system: SARS-CoV-2 spike protein pseudo-typed virions; format: cell-based
[2] = molecular target: T1, RBD of SARS-CoV-2 spike protein binding to hACE2 receptor (Severe acute respiratory syndrome coronavirus 2, UniProt P0DTC2); assay: biochemical
T1 construct: purchased GenScript

[3] = test system: SARS-CoV-2 spike protein pseudo-typed virions; format: cell-based; remark: listed apart in the source
hACE2 receptor = molecular target: T2, hACE2 receptor (Homo sapiens, UniProt Q9BYF1); format: binding; conditions: for Binging with ACE2 (% of control ± SD): Table 3
T2 construct: purchased GenScript
T2 sequence (Q9BYF1 18-740): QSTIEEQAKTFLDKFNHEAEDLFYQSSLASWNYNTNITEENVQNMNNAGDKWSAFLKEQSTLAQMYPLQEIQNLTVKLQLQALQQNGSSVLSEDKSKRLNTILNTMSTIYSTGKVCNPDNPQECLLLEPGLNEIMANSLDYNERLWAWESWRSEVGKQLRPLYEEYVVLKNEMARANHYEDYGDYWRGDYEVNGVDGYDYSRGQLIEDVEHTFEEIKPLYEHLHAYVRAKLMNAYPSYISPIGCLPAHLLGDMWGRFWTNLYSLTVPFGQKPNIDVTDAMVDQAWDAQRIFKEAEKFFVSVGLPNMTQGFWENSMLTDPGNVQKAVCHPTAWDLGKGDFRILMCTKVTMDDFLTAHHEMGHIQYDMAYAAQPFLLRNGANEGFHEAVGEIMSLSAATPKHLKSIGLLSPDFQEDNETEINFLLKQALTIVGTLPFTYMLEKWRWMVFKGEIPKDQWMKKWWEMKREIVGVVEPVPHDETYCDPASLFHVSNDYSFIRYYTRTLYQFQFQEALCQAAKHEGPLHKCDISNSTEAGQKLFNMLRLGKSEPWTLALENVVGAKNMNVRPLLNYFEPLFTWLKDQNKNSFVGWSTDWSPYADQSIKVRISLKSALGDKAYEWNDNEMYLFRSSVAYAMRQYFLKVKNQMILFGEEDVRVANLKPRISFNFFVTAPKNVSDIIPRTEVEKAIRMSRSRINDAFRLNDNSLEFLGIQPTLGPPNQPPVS

Compound	Binging with ACE2 (% of control ± SD) (hACE2 receptor; tested at 0.1 mg/ml)	further results
COc1cc(/C=C/C(=O)CC(=O)/C=C/c2ccc(O)c(OC)c2)ccc1O [Curcumin]	4.6 ± 2.4 % of control	concentration from which inhibition of transduction is statistically significant [1]: 5.0 µg/mL; affinity in binding to the RBD-spike protein of SARS-CoV-2 (in words) [2]: exhibited the highest affinity; inhibition at 100 µg/mL ([2]; 100 μg/ml, read-out: efficacy in inhibiting RBD binding to hACE2): 100%; inhibition of pseudo-typed virion binding to hACE2/A549 (in words) [3]: similarly inhibited binding; binding to the ACE2 receptor itself (in words) (hACE2 receptor): moderate binding
O=c1cc(-c2ccc(O)c(O)c2)oc2cc(O)cc(O)c12 [Luteolin]	4.8 ± 1.6 % of control	
O=C(O)c1cc(O)c(O)c(O)c1 [Gallic acid]	6.5 ± 1.3 % of control	
(+)-epigallocatechin gallate		Binding to RBD (% of control ± DS) [2]: 87.5 ± 6.8 % of control; Binging to ACE2 (% of control ± DS) (hACE2 receptor; Table 4, tested at 0.1 mg/ml): 5.9 ± 2.0 % of control
O=c1c(O)c(-c2ccc(O)cc2O)oc2cc(O)cc(O)c12 [Morin]	5.6 ± 3.1 % of control	
COc1ccc2cc3[n+](cc2c1OC)CCc1cc2c(cc1-3)OCO2 [Berberine]	9.4 ± 2.4 % of control	
(+)-gallocatechin		Binding to RBD (% of control ± DS) [2]: 69.5 ± 2.8 % of control; Binging to ACE2 (% of control ± DS) (hACE2 receptor; Table 4, tested at 0.1 mg/ml): 5.7 ± 1.6 % of control
C[C@@H]1O[C@@H](OC[C@H]2O[C@@H](Oc3c(-c4ccc(O)c(O)c4)oc4cc(O)cc(O)c4c3=O)[C@H](O)[C@@H](O)[C@@H]2O)[C@H](O)[C@H](O)[C@H]1O [Rutin]	4.8 ± 2.0 % of control	
O=c1c(O)c(-c2cc(O)c(O)c(O)c2)oc2cc(O)cc(O)c12 [Myricetin]	5.6 ± 2.1 % of control	
O=c1c(O)cc([C@H]2Oc3cc(O)cc(O)c3C[C@H]2O)cc2c([C@H]3Oc4cc(O)cc(O)c4C[C@H]3O)cc(O)c(O)c12 [Theafalvin]		Binding to RBD (% of control ± DS) [2]: 27.3 ± 1.4 % of control; Binging to ACE2 (% of control ± DS) (hACE2 receptor; Table 4, tested at 0.1 mg/ml): 7.9 ± 1.9 % of control
O=c1cc(-c2ccccc2)oc2cc(O)c(O)c(O)c12 [Baicalein]	7.4 ± 1.4 % of control	
O=C(OC[C@H]1O[C@@H](OC(=O)c2cc(O)c(O)c(OC(=O)c3cc(O)c(O)c(O)c3)c2)[C@H](OC(=O)c2cc(O)c(O)c(OC(=O)c3cc(O)c(O)c(O)c3)c2)[C@@H](OC(=O)c2cc(O)c(O)c(OC(=O)c3cc(O)c(O)c(O)c3)c2)[C@@H]1OC(=O)c1cc(O)c(O)c(OC(=O)c2cc(O)c(O)c(O)c2)c1)c1cc(O)c(O)c(OC(=O)c2cc(O)c(O)c(O)c2)c1 [Tannic acid]	7.2 ± 2.3 % of control	
O=C(O)[C@H]1O[C@@H](Oc2cc3oc(-c4ccccc4)cc(=O)c3c(O)c2O)[C@H](O)[C@@H](O)[C@@H]1O [Baicalin]	4.9 ± 1.9 % of control	
O=c1cc(-c2ccc(O)cc2)oc2cc(O)cc(O)c12 [Apigenin]	8.3 ± 1.9 % of control	
CC(=O)c1c(O)c(C)c(O)c2c1OC1=CC(=O)C(C(C)=O)C(=O)C12C (centres unmarked) [Usnic acid]	5.7 ± 1.7 % of control	
Procyanidin B2	5.8 ± 2.7 % of control	Binding with RBD (% of control ± SD) [2]: 31.1 ± 3.6 % of control
O=C1C[C@@H](c2ccc(O)cc2)Oc2cc(O)cc(O)c21 [Naringenin]	8.3 ± 1.6 % of control	Binding with RBD (% of control ± SD) [2]: 20 ± 5.1 % of control
O=C(/C=C/c1ccc(O)c(O)c1)O[C@@H]1C[C@](O)(C(=O)O)C[C@@H](O)[C@H]1O [Chlorogenic acid]	4.7 ± 1.6 % of control	
C=C(C)[C@@H]1CCC(C)=C[C@H]1c1c(O)cc(CCCCC)cc1O [Cannabidiol, reference compound]	5.8 ± 2.0 % of control	
O=c1c(O)c(-c2ccc(O)c(O)c2)oc2cc(O)cc(O)c12 [Quercetin]	7.8 ± 3.3 % of control	
D-limonene	6.4 ± 1.5 % of control	Binding with RBD (% of control ± SD) [2]: 27.2 ± 6.4 % of control
C[C@@H]1O[C@@H](O[C@H]2[C@H](Oc3cc(O)c4c(c3)O[C@H](c3ccc(O)cc3)CC4=O)O[C@H](CO)[C@@H](O)[C@@H]2O)[C@H](O)[C@H](O)[C@H]1O [Naringin]	3.7 ± 1.1 % of control	
COc1ccc([C@@H]2CC(=O)c3c(O)cc(O)cc3O2)cc1O [Hesperetin]	4.9 ± 2.7 % of control	
O=C(O)CC(O)C(=O)O (centres unmarked) [Malic acid]	5.8 ± 1.4 % of control	
Oc1ccc(/C=C/c2cc(O)cc(O)c2)cc1 [Trans-resveratrol]	5.5 ± 2.4 % of control	

Compound	Binging with ACE2 (% of control ± SD) (hACE2 receptor; tested at 0.1 mg/ml)	further results
Oc1cc(O)cc(O)c1 [Phloroglucinol]	5.9 ± 3.4 % of control	
Schisandrin	5.1 ± 2.7 % of control	Binding with RBD (% of control ± SD) [2]: 22.4 ± 3.3 % of control
O=c1c(O)c(-c2ccc(O)cc2)oc2cc(O)cc(O)c12 [Kaempferol]	6.2 ± 2.5 % of control	
Theaflavine-3′3-digallate		concentration from which inhibition of transduction is statistically significant [1]: 10 µg/mL; inhibition of pseudo-typed virion binding to hACE2/A549 (in words) [3]: similarly inhibited binding
Urolithin A	8.8 ± 1.6 % of control	Binding with RBD (% of control ± SD) [2]: 31.1 ± 4.6 % of control
O=C(O)[C@H]1O[C@@H](Oc2cc3oc(-c4ccc(O)cc4)cc(=O)c3c(O)c2O)[C@H](O)[C@@H](O)[C@@H]1O [Scutellarin]	7.5 ± 1.7 % of control	
O=C1O[C@H]2[C@@H]3OC(=O)c4cc(O)c(O)c(O)c4-c4c(O)c(O)c5oc(=O)c6c(c(O)c(O)c7oc(=O)c4c5c76)-c4c(cc(O)c(O)c4O)C(=O)OC[C@H]3OC(O)[C@@H]2OC(=O)c2cc(O)c(O)c(O)c2-c2c1cc(O)c(O)c2O (mixture of isomers) [Punicalagin]	5.4 ± 2.3 % of control	
L-sulforaphane		Binding to RBD (% of control ± DS) [2]: 30.2 ± 3.6 % of control; Binging to ACE2 (% of control ± DS) (hACE2 receptor): 6.7 ± 1.5 % of control
(−)-gallocatechin gallate		Binding to RBD (% of control ± DS) [2]: 75.4 ± 5.6 % of control; Binging to ACE2 (% of control ± DS) (hACE2 receptor; Table 4, tested at 0.1 mg/ml): 7.5 ± 1.7 % of control
O[C@H]1[C@H](O)[C@@H](O)CN2CC[C@H](O)[C@H]12 [Castanospermine]	5.5 ± 3.1 % of control	
COc1c(O)cc2oc(-c3ccc(O)cc3)cc(=O)c2c1O [Hispidulin]	7.4 ± 2.1 % of control	
CC(C)c1cc2c(c(O)c1O)[C@@]1(C(=O)O)CCCC(C)(C)[C@@H]1CC2 [Carnosic acid]	6.9 ± 4.1 % of control	
(−)-gallocatechin		Binding to RBD (% of control ± DS) [2]: 73.5 ± 6.7 % of control; Binging to ACE2 (% of control ± DS) (hACE2 receptor; Table 4, tested at 0.1 mg/ml): 3.9 ± 2.3 % of control
O=c1c(O)c(-c2ccc(O)c(O)c2)oc2cc(O)ccc12 [Fisetin]	6.0 ± 2.4 % of control	
O=c1c(-c2ccc(O)cc2)coc2cc(O)cc(O)c12 [Genistein]	9.4 ± 2.7 % of control	
COc1ccc(Cc2nccc3cc(OC)c(OC)cc23)cc1OC [Papaverine, reference compound]	6.5 ± 3.7 % of control	
COc1cc(/C=C/c2ccc(O)cc2)cc(OC)c1 [Pterostilbene]	9.4 ± 2.5 % of control	
Hesperidin	8.3 ± 2.3 % of control	Binding with RBD (% of control ± SD) [2]: 90.3 ± 3.8 % of control
Procyanidin B3	7.8 ± 2.7 % of control	Binding with RBD (% of control ± SD) [2]: 32.3 ± 3.7 % of control
CC1(C)[C@@H](O[C@H]2O[C@H](C(=O)O)[C@@H](O)[C@H](O)[C@H]2O[C@@H]2O[C@H](C(=O)O)[C@@H](O)[C@H](O)[C@H]2O)CC[C@]2(C)[C@H]3C(=O)C=C4[C@@H]5C[C@@](C)(C(=O)O)CC[C@]5(C)CC[C@@]4(C)[C@]3(C)CC[C@@H]12 [Glycyrrhizic acid]		Binging to ACE2 (% of control ± DS) (hACE2 receptor; Table 4, tested at 0.1 mg/ml): 10.1 ± 2.8 % of control
(−)-catechin gallate		Binding to RBD (% of control ± DS) [2]: 37.4 ± 4.7 % of control; Binging to ACE2 (% of control ± DS) (hACE2 receptor; Table 4, tested at 0.1 mg/ml): 8.6 ± 1.5 % of control
C=C1CC[C@@H]2[C@](C)(CO)[C@H](O)CC[C@@]2(C)[C@@H]1C/C=C1/C(=O)OC[C@H]1O [Andrographolide]		Binding to RBD (% of control ± DS) [2]: 22.1 ± 2.5 % of control; Binging to ACE2 (% of control ± DS) (hACE2 receptor; Table 4, tested at 0.1 mg/ml): 5.6 ± 2.4 % of control
O=C(/C=C/c1ccc(O)c(O)c1)O[C@H](Cc1ccc(O)c(O)c1)C(=O)O [Rosmarinic acid]	7.9 ± 1.8 % of control	
Palmatine	8.5 ± 2.7 % of control	Binding with RBD (% of control ± SD) [2]: 40.4 ± 6.1 % of control
